Source: ChEMBL document CHEMBL1146606, “CoMFA and homology-based models of the glycine binding site of N-methyl-d-aspartate receptor” (J Med Chem, 2003)

How the values were obtained:
[1] = target: Glutamate [NMDA] receptor; assay: Inhibition of [3H]DCKA binding to N-methyl-D-aspartate glutamate receptor; assay type: protein-complex assay
[2] = target: Glutamate [NMDA] receptor; assay: Compound was tested for inhibition of [3H]DCKA binding to N-methyl-D-aspartate glutamate receptor; assay type: protein-complex assay; parameters: unit not given here

Compound: Oc1nc2cc(Cl)cnc2c(O)c1-c1cccc(Oc2ccccc2)c1
- IC50 [1]: 0.11 µM
- Log 1/IC50 [2]: 0.96

Compound: COc1cc2nc(O)c(O)nc2cc1Br
- IC50 [1]: 1 µM
- Log 1/IC50 [2]: 0

Compound: Cc1c(C#N)cc2nc(O)c(O)nc2c1[N+](=O)[O-]
- IC50 [1]: 0.073 µM
- Log 1/IC50 [2]: 1.14

Compound: O=Nc1c(O)nc2ccccc2c1O
- IC50 [1]: 1.4 µM
- Log 1/IC50 [2]: -0.15

Compound: Oc1nc2ncc(Cl)cc2c(O)c1-c1ccccc1
- IC50 [1]: > 100 µM
- Log 1/IC50 [2]: -2

Compound: O=[N+]([O-])c1cccc(-c2c(O)nc3cc(Cl)cnc3c2O)c1
- IC50 [1]: 7.4 µM
- Log 1/IC50 [2]: -0.87

Compound: Cc1c(Cl)cc2nc(O)c(O)nc2c1[N+](=O)[O-]
- IC50 [1]: 0.0047 µM
- Log 1/IC50 [2]: 2.33

Compound: Oc1nc2cc(Cl)cc(Cl)c2nc1O
- IC50 [1]: 0.28 µM
- Log 1/IC50 [2]: 0.55

Compound: CCc1cc2nc(O)c(O)nc2c([N+](=O)[O-])c1Br
- IC50 [1]: 0.082 µM
- Log 1/IC50 [2]: 1.09

Compound: Oc1nc2cc(Cl)cnc2c(O)c1-c1ccccc1Cl
- IC50 [1]: 24 µM
- Log 1/IC50 [2]: -1.38

Compound: Oc1nc2cc(F)c(Cl)c(F)c2nc1O
- IC50 [1]: 0.63 µM
- Log 1/IC50 [2]: 0.2

Compound: Oc1nc2cc(Cl)cnc2c(O)c1-c1ccc(Cl)cc1
- IC50 [1]: 13 µM
- Log 1/IC50 [2]: -1.11

Compound: Oc1nc2ccccc2nc1O
- IC50 [1]: 9.8 µM
- Log 1/IC50 [2]: -0.99

Compound: Cc1cccc(-c2c(O)nc3cc(Cl)cnc3c2O)c1
- IC50 [1]: 1.8 µM
- Log 1/IC50 [2]: -0.25

Compound: Oc1nc2cc3c(cc2nc1O)CCC3
- IC50 [1]: 15 µM
- Log 1/IC50 [2]: -1.17

Compound: Oc1nc2cc(Cl)cnc2c(O)c1-c1ccccc1
- IC50 [1]: 3.3 µM
- Log 1/IC50 [2]: -0.52

Compound: Cc1c(F)cc2nc(O)c(O)nc2c1[N+](=O)[O-]
- IC50 [1]: 0.095 µM
- Log 1/IC50 [2]: 1.02

Compound: COc1cccc(-c2c(O)nc3cc(Cl)cnc3c2O)c1
- IC50 [1]: 2.9 µM
- Log 1/IC50 [2]: -0.46

Compound: O=[N+]([O-])c1c(O)nc2ccc(Cl)cc2c1O
- IC50 [1]: > 100 µM
- Log 1/IC50 [2]: -2

Compound: N#Cc1cc([N+](=O)[O-])c2nc(O)c(O)nc2c1
- IC50 [1]: 2.8 µM
- Log 1/IC50 [2]: -0.45

Compound: O=[N+]([O-])c1c(O)nc2c(Cl)c(Cl)c(Cl)cc2c1O
- IC50 [1]: > 100 µM
- Log 1/IC50 [2]: -2

Compound: CCc1cc2nc(O)c(O)nc2cc1CC
- IC50 [1]: 1.8 µM
- Log 1/IC50 [2]: -0.26

Compound: COc1c(F)cc2nc(O)c(O)nc2c1[N+](=O)[O-]
- IC50 [1]: 1.9 µM
- Log 1/IC50 [2]: -0.28

Compound: Cc1c(Br)cc2nc(O)c(O)nc2c1[N+](=O)[O-]
- IC50 [1]: 0.0087 µM
- Log 1/IC50 [2]: 2.06

Compound: O=Nc1c(O)nc2c(F)c(F)c(F)c(F)c2c1O
- IC50 [1]: 3.3 µM
- Log 1/IC50 [2]: -0.52

Compound: Oc1nc2cnccc2c(O)c1-c1cccc(Oc2ccccc2)c1
- IC50 [1]: 5.4 µM
- Log 1/IC50 [2]: -0.73

Compound: CCc1cc2nc(O)c(O)nc2cc1Cl
- IC50 [1]: 1.4 µM
- Log 1/IC50 [2]: -0.15

Compound: O=[N+]([O-])c1c(O)nc2c(F)c(F)c(F)c(F)c2c1O
- IC50 [1]: > 100 µM
- Log 1/IC50 [2]: -2

Compound: COc1c(Br)cc2nc(O)c(O)nc2c1[N+](=O)[O-]
- IC50 [1]: 0.064 µM
- Log 1/IC50 [2]: 1.19

Compound: Oc1nc2cc3ccccc3cc2nc1O
- IC50 [1]: 16 µM
- Log 1/IC50 [2]: -1.2

Compound: Oc1nc2cc(Cl)cnc2c(O)c1-c1cccc(Cl)c1
- IC50 [1]: 3 µM
- Log 1/IC50 [2]: -0.48

Compound: O=c1[nH]c2cc(Cl)c(Cl)c([N+](=O)[O-])c2[nH]c1=O [LICOSTINEL]
- IC50 [1]: 0.0059 µM
- Log 1/IC50 [2]: 2.23

Compound: CCOc1c(F)cc2nc(O)c(O)nc2c1[N+](=O)[O-]
- IC50 [1]: 3.6 µM
- Log 1/IC50 [2]: -0.56

Compound: O=[N+]([O-])c1c(O)nc2cc(Cl)cc(Cl)c2c1O
- IC50 [1]: 0.22 µM
- Log 1/IC50 [2]: 0.66

Compound: CCCCOc1c(F)cc2nc(O)c(O)nc2c1[N+](=O)[O-]
- IC50 [1]: 4.3 µM
- Log 1/IC50 [2]: -0.63

Compound: Oc1cc2nc(O)c(O)nc2cc1O
- IC50 [1]: > 100 µM
- Log 1/IC50 [2]: -2

Compound: Oc1nc2ncc(Cl)cc2c(O)c1-c1cccc(Oc2ccccc2)c1
- IC50 [1]: 19 µM
- Log 1/IC50 [2]: -1.28

Compound: Cc1cc([N+](=O)[O-])c2nc(O)c(O)nc2c1
- IC50 [1]: 9.3 µM
- Log 1/IC50 [2]: -0.97

Compound: Oc1nc2cc(Cl)cnc2c(O)c1-c1cccs1
- IC50 [1]: 9.8 µM
- Log 1/IC50 [2]: -0.99

Compound: Oc1nc2cc(Cl)c(Cl)cc2nc1O [2,3-DIHYDROXY-6,7-DICHLOROQUINOXALINE]
- IC50 [1]: 0.13 µM
- Log 1/IC50 [2]: 0.89

Compound: Oc1nc2ccc(Cl)cc2nc1O
- IC50 [1]: 1.8 µM
- Log 1/IC50 [2]: -0.25

Compound: O=Nc1c(O)nc2cc(Cl)c(Cl)cc2c1O
- IC50 [1]: 0.012 µM
- Log 1/IC50 [2]: 1.92

Compound: Cc1cc2nc(O)c(O)nc2c([N+](=O)[O-])c1Cl
- IC50 [1]: 0.045 µM
- Log 1/IC50 [2]: 1.35

Compound: Oc1nc2cc3c(cc2nc1O)OCO3
- IC50 [1]: > 100 µM
- Log 1/IC50 [2]: -2

Compound: O=Nc1c(O)nc2cc(Cl)cc(Cl)c2c1O
- IC50 [1]: 0.033 µM
- Log 1/IC50 [2]: 1.48

Compound: CCc1cc2nc(O)c(O)nc2c([N+](=O)[O-])c1Cl
- IC50 [1]: 0.029 µM
- Log 1/IC50 [2]: 1.54

Compound: O=Nc1c(O)nc2c(Cl)cccc2c1O
- IC50 [1]: > 100 µM
- Log 1/IC50 [2]: -2

Compound: Oc1nc2ccncc2c(O)c1-c1cccc(Oc2ccccc2)c1
- IC50 [1]: 20 µM
- Log 1/IC50 [2]: -1.3

Compound: Cc1cc2nc(O)c(O)nc2c([N+](=O)[O-])c1C
- IC50 [1]: 0.029 µM
- Log 1/IC50 [2]: 1.54

Compound: O=Nc1c(O)nc2ccc(Cl)c(Cl)c2c1O
- IC50 [1]: 0.17 µM
- Log 1/IC50 [2]: 0.77

Compound: O=[N+]([O-])c1c(O)nc2cc(Cl)ccc2c1O
- IC50 [1]: 1.5 µM
- Log 1/IC50 [2]: -0.18

Compound: O=Nc1c(O)nc2ccc(Cl)cc2c1O
- IC50 [1]: 3.4 µM
- Log 1/IC50 [2]: -0.53

Compound: O=Nc1c(O)nc2c(F)c(Cl)c(F)cc2c1O
- IC50 [1]: 0.91 µM
- Log 1/IC50 [2]: 0.04

Compound: O=[N+]([O-])c1c(O)nc2c(F)c(Cl)c(F)cc2c1O
- IC50 [1]: 40 µM
- Log 1/IC50 [2]: -1.6

Compound: Oc1nc2ncccc2c(O)c1-c1cccc(Oc2ccccc2)c1
- IC50 [1]: 31 µM
- Log 1/IC50 [2]: -1.49

Compound: Oc1nc2cccnc2c(O)c1-c1ccccc1
- IC50 [1]: > 100 µM
- Log 1/IC50 [2]: -2

Compound: O=[N+]([O-])c1c(O)nc2c(Cl)cccc2c1O
- IC50 [1]: > 100 µM
- Log 1/IC50 [2]: -2

Compound: O=[N+]([O-])c1c(OCCCc2ccccc2)c(F)cc2nc(O)c(O)nc12
- IC50 [1]: 4 µM
- Log 1/IC50 [2]: -0.6

Compound: Oc1nc2cc(Cl)cnc2c(O)c1-c1ccsc1
- IC50 [1]: 4.3 µM
- Log 1/IC50 [2]: -0.63

Compound: Oc1nc2cc(Cl)c(Cl)c(Cl)c2nc1O
- IC50 [1]: 0.03 µM
- Log 1/IC50 [2]: 1.53

Compound: COc1cc2nc(O)c(O)nc2cc1OC
- IC50 [1]: 17 µM
- Log 1/IC50 [2]: -1.23

Compound: Cc1cc2nc(O)c(O)nc2cc1C
- IC50 [1]: 3.3 µM
- Log 1/IC50 [2]: -0.52

Compound: Cc1cc(C)c2c(O)c(N=O)c(O)nc2c1
- IC50 [1]: 0.037 µM
- Log 1/IC50 [2]: 1.43

Compound: O=Nc1c(O)nc2cc(Cl)ccc2c1O
- IC50 [1]: 0.053 µM
- Log 1/IC50 [2]: 1.28

Compound: Cc1cc2nc(O)c(O)nc2cc1Cl
- IC50 [1]: 0.78 µM
- Log 1/IC50 [2]: 0.11

Compound: COc1c(Cl)cc2nc(O)c(O)nc2c1[N+](=O)[O-]
- IC50 [1]: 0.15 µM
- Log 1/IC50 [2]: 0.82

Compound: Cc1c(Cl)cc2nc(O)c(O)nc2c1N
- IC50 [1]: 0.15 µM
- Log 1/IC50 [2]: 0.82

Compound: Oc1nc2c(F)c(F)c(F)c(F)c2nc1O
- IC50 [1]: 0.73 µM
- Log 1/IC50 [2]: 0.14

Compound: Cc1cc(C)c2nc(O)c(O)nc2c1
- IC50 [1]: 2.1 µM
- Log 1/IC50 [2]: -0.32

Compound: Nc1c(F)cc2nc(O)c(O)nc2c1[N+](=O)[O-]
- IC50 [1]: 11 µM
- Log 1/IC50 [2]: -1.04

Compound: O=[N+]([O-])c1c(O)nc2cc(Cl)c(Cl)cc2c1O
- IC50 [1]: 0.4 µM
- Log 1/IC50 [2]: 0.4

Compound: COc1cc2nc(O)c(O)nc2c(OC(C)=O)c1OC
- IC50 [1]: 53 µM
- Log 1/IC50 [2]: -1.72

Compound: Cc1cc(C)c2c(O)c([N+](=O)[O-])c(O)nc2c1
- IC50 [1]: 0.29 µM
- Log 1/IC50 [2]: 0.54

Compound: O=c1[nH]c2cc3c(c([N+](=O)[O-])c2[nH]c1=O)CCC3
- IC50 [1]: 3.1 µM
- Log 1/IC50 [2]: -0.49

Compound: O=[N+]([O-])c1c(O)nc2cccc(Cl)c2c1O
- IC50 [1]: 61 µM
- Log 1/IC50 [2]: -1.78

Compound: Oc1nc2cc(Cl)cnc2c(O)c1Oc1cccc(-c2ccccc2)c1
- IC50 [1]: 0.023 µM
- Log 1/IC50 [2]: 1.64

Compound: COc1cc2nc(O)c(O)nc2c(O)c1OC
- IC50 [1]: 17 µM
- Log 1/IC50 [2]: -1.23

Compound: O=Nc1c(O)nc2cc(Cl)c(Cl)c(Cl)c2c1O
- IC50 [1]: 0.007 µM
- Log 1/IC50 [2]: 2.15

Compound: CCSc1c(Cl)cc2nc(O)c(O)nc2c1[N+](=O)[O-]
- IC50 [1]: 0.64 µM
- Log 1/IC50 [2]: 0.19

Compound: CCc1c(Cl)cc2nc(O)c(O)nc2c1[N+](=O)[O-]
- IC50 [1]: 0.13 µM
- Log 1/IC50 [2]: 0.89

Compound: O=[N+]([O-])c1c(O)nc2cc(Cl)c(Cl)c(Cl)c2c1O
- IC50 [1]: 0.22 µM
- Log 1/IC50 [2]: 0.66

Compound: O=Nc1c(O)nc2cccc(Cl)c2c1O
- IC50 [1]: 4.4 µM
- Log 1/IC50 [2]: -0.64

Compound: CCc1cc2nc(O)c(O)nc2c([N+](=O)[O-])c1CC
- IC50 [1]: 0.16 µM
- Log 1/IC50 [2]: 0.8

Compound: O=[N+]([O-])c1c(O)nc2ccccc2c1O
- IC50 [1]: 34 µM
- Log 1/IC50 [2]: -1.53

Compound: Oc1nc2ncccc2c(O)c1-c1ccccc1
- IC50 [1]: > 100 µM
- Log 1/IC50 [2]: -2
